Source: US9855226B2 (Relmada Therapeutics, Inc., priority 2012, dated 2018)

Experiments:
[1] = target: T1, N-methyl-D-aspartate (NMDA) receptor (Rattus norvegicus, UniProt P35439); settings: cited from earlier work
T1 construct: N-methyl-D-aspartate (NMDA) receptor in rat forebrain and spinal cord

[2] = tested on: patients with chronic pain
[3] = tested on: patients with chronic pain; settings: average of eight patients
[4] = tested on: subjects with major depression; settings: single dose, 8 subjects; cited from earlier work
[5] = tested on: relatively refractory population with major depression; settings: single dose; cited from earlier work
[6] = tested on: male Wistar rats; settings: single dose; cited from earlier work
[7] = 8 patients that completed and 1 removed, 40 mg PO q12 hr
[8] = day 12 of d-methadone 40 mg every 12 hours

Compound: CCC(=O)C(C[C@@H](C)N(C)C)(c1ccccc1)c1ccccc1 [l-methadone, reference compound]
- NMDA receptor antagonism [1]: NMDA antagonists

Compound: CCC(=O)C(C[C@H](C)N(C)C)(c1ccccc1)c1ccccc1 [d-methadone]
- Tolerability ([2]; 40 mg PO Q 12 hours for 12 days, patients with chronic pain and multiple co morbidities): well tolerated
- Back pain: # of patients [2, 7]: 1
- Headache (first line): # of patients [2, 7]: 1
- Headache (second line): # of patients [2, 7]: 1
- Somnolence (Neurology): # of patients [2, 7]: 2
- Tremor (Neurology): # of patients [2, 7]: 1
- Back pain: Attribution ([2]; CTCAE v3.0): 3
- Back pain: Grade (1-5) ([2]; CTCAE v3.0): 1
- Headache (first line): Attribution ([2]; CTCAE v3.0): 3
- Headache (first line): Grade (1-5) ([2]; CTCAE v3.0): 1
- Headache (second line): Attribution ([2]; CTCAE v3.0): 4
- Headache (second line): Grade (1-5) ([2]; CTCAE v3.0): 1
- Somnolence (Neurology): Attribution ([2]; CTCAE v3.0): 3
- Somnolence (Neurology): Grade (1-5) ([2]; CTCAE v3.0): 2
- Tremor (Neurology): Attribution ([2]; CTCAE v3.0): 3
- Tremor (Neurology): Grade (1-5) ([2]; CTCAE v3.0): 1
- Patients' perception of analgesia ([2]; very sick patients with severe cancer pain): recognized it as an effective analgesic
- Anxiety, Baseline, average score ([3]; baseline (day 1)): 2.5
- Drowsiness, Baseline, average score ([3]; baseline (day 1)): 4.1
- Pain, Baseline, average score ([3]; baseline (day 1)): 4.1
- Tiredness, Baseline, average score ([3]; baseline (day 1)): 5.9
- Anxiety, Day 12, average score [3, 8]: 1.5
- Drowsiness, Day 12, average score [3, 8]: 2.9
- Pain, Day 12, average score [3, 8]: 4.1
- Tiredness, Day 12, average score [3, 8]: 3.6
- NMDA receptor antagonism [1]: NMDA antagonists

Compound: CNC1(c2ccccc2Cl)CCCCC1=O (stereo not shown) [ketamine]
- Antidepressant effect [4]: rapid and short-lived antidepressant effect
- Duration of antidepressant response (relatively sustained) [5]: 1 week
- Time to antidepressant response (rapid) [5]: 110 min
- Duration of interference with the induction of behavioral despair [6]: up to 10 days
